Structures can show the parent of a compound that is named as a salt.
How the values were obtained:
[1] = tested on: pentagastrin stimulated gastric acid secretion; experiment: Rat lumen perfused stomach (pentagastrin stimulated gastric acid secretion); format: in vivo; details: iv, 10 μmole/kg
Excerpt: B. Rat Lumen Perfused Stomach ([…] stimulated […] secretion) Using a modification of the procedure described by Ghosh & Schild (Br. J. Pharmacology, 13, 54, 1958), the compounds of the following examples were found on i.v. administration at a concentration of 10 μmole/kg to cause an inhibition of pentagastrin stimulated gastric acid secretion as follows: […]

[2] = molecular target: T1, gastrointestinal H^+ K^+ ATPase (Sus scrofa, UniProt P19156); experiment: K+-stimulated ATPase activity in lyophilized gastric vesicles (H/K-ATPase); format: biochemical; details: lyophilized pig gastric vesicles, 37° C.; for IC50: K+-stimulated ATPase activity, pH 7.0, 30 minutes
T1 construct: Lyophilized gastric vesicles were prepared from pig fundic mucosa; from tissue; host or cells: pig fundic mucosa (lyophilized gastric vesicles)
T1 sequence (P19156 2-1034 limits assumed): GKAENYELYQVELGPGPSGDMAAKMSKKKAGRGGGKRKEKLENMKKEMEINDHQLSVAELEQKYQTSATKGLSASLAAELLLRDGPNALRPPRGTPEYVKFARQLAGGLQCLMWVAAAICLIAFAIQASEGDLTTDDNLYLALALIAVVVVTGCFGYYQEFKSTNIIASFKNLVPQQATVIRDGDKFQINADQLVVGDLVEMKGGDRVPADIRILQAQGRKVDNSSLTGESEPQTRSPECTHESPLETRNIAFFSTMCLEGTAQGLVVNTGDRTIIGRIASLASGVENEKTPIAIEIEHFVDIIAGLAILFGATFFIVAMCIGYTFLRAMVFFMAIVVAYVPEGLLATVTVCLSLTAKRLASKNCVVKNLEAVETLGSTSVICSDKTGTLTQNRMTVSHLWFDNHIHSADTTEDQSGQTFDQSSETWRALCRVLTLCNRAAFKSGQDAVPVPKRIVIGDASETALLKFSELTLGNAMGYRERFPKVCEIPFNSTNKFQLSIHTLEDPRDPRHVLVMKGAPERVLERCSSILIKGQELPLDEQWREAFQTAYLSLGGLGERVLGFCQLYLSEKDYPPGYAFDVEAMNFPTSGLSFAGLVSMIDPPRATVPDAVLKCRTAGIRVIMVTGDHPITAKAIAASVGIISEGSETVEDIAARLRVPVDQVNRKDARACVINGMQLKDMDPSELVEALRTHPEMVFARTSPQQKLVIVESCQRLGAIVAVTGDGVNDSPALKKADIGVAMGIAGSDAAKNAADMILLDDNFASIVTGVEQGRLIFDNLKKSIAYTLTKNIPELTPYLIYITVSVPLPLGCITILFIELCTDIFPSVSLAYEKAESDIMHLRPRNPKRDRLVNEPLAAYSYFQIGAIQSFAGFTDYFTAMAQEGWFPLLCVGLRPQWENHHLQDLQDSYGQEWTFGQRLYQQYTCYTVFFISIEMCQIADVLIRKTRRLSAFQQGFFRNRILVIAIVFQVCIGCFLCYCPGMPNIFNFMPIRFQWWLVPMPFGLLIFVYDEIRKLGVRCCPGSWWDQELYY
T1 sequence (P18434 whole entry partner): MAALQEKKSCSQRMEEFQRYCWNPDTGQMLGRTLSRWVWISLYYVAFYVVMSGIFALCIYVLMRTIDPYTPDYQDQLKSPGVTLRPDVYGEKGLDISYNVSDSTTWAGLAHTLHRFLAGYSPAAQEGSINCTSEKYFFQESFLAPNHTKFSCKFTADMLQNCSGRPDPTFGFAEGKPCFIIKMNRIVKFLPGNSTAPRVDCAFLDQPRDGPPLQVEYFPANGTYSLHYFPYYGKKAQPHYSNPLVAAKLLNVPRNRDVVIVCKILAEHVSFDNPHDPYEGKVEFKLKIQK
Description: The effects of a single high concentration (100 μM) of a compound of structure (I) on K-stimulated ATPase activity in lyophilized gastric vesicles was determined. Preferred compounds of structure (I) were also tested over a range of concentrations to determine IC50 values. Lyophilized gastric vesicles were prepared from pig fundic mucosa after the method of Keeling et. al. (Biochem. Pharmacol., 34, 2967, 1985). K^+ -stimulated ATPase activity was determined at 37° C. in the presence of the following : 10 mM Pipes/Tris buffer pH 7.0, 2 mM MgSO4, 1 mM KCl, 2 mM Na2 ATP and 3-6 μg protein/ml lyophilized gastric vesicles. After incubation for 30 minutes, the inorganic phosphate hydrolyzed from ATP was determined by the method of Yoda and Hokin (Biochem. Biophys. Res. Commun. 40, 880, 1970). Compounds of structure (I) were dissolved in dimethylsulphoxide which up to the highest concentration used had no effect on K^+ -stimulated ATPase activity. The effect of the highest concentration of each compound of structure (I) on the recovery of a standard amount of inorganic phosphate was also determined.

CCCC(=O)c1cnc2c(CO)cccc2c1Nc1ccc(F)cc1C [Example 9, 3-butyryl-4-(4-fluoro-2-methylphenylamino)-8-(hydroxymethyl)quinoline]
inhibition in vivo at 10 µmol/kg [1]: 55%
IC50 [2]: 2.2 µM

CCCC(=O)c1cnc2c(OCCOC)cccc2c1Nc1ccccc1C [Example 2, 3-butyryl-4-(2-methylphenylamino)-8-(2-methoxyethoxy)quinoline]
inhibition in vivo at 10 µmol/kg [1]: 67%
IC50 [2]: 2.5 µM

CCCC(=O)c1cnc2c(OCCO)cccc2c1Nc1ccc(F)cc1C [Example 14, 3-butyryl-4-(4-fluoro-2-methylphenylamino)-8-(2-hydroxyethoxy)quinoline]
inhibition in vivo at 10 µmol/kg [1]: 79%
IC50 [2]: 2.7 µM

CCCC(=O)c1cnc2c(C(C)O)cccc2c1Nc1ccc(O)cc1C (stereo not shown) [Example 15, 3-butyryl-4-(4-hydroxy-2-methylphenylamino)-8-(1-hydroxyethyl)quinoline]
inhibition in vivo at 10 µmol/kg [1]: 70%
IC50 [2]: 0.06 µM

CCCC(=O)c1cnc2c(C(C)O)cccc2c1Nc1ccccc1C (stereo not shown) [Example 4, 3-butyryl-4-(2-methylphenylamino)-8-(1-hydroxyethyl)quinoline]
inhibition in vivo at 10 µmol/kg [1]: 63%
IC50 [2]: 0.36 µM

Cc1cc(O)ccc1Nc1c(C(=O)C(C)C)cnc2c(CO)cccc12 [Example 16, 3-isobutyryl-4-(4-hydroxy-2-methylphenylamino)-8-(hydroxymethyl)quinoline hydrochloride]
inhibition in vivo at 10 µmol/kg [1]: 91%
IC50 [2]: 0.04 µM

CCCC(=O)c1cnc2c(OCCOCCOCCO)cccc2c1Nc1ccccc1C [Example 12, 3-butyryl-4-(2-methylphenylamino)-8-(2-(2-(2-hydroxyethoxy)ethoxy)ethoxy)quinoline]
inhibition in vivo at 10 µmol/kg [1]: 57%
IC50 [2]: 2.4 µM

CCCC(=O)c1cnc2cc(CO)ccc2c1Nc1ccccc1C [Example 6, 3-butyryl-4-(2-methylphenylamino)-7-hydroxymethylquinoline]
% inhibition of K+-stimulated ATPase activity (printed in IC50 column as % @ 100) ([2]; @ 100 (μM), pH 7.0): 44%

CCCC(=O)c1cnc2c(OCCO)cccc2c1Nc1ccccc1C [Example 10, 3-butyryl-4-(2-methylphenylamino)-8-(2-hydroxyethoxy)quinoline]
inhibition in vivo at 10 µmol/kg [1]: 68%
IC50 [2]: 2.4 µM

CCCC(=O)c1cnc2c(OCCOCCO)cccc2c1Nc1ccccc1C [Example 11, 3-butyryl-4-(2-methylphenylamino)-8-(2-(2-hydroxyethoxy)ethoxy)quinoline]
inhibition in vivo at 10 µmol/kg [1]: 77%
IC50 [2]: 2.1 µM

Cc1ccccc1Nc1c(C(=O)C(C)C)cnc2c(CO)cccc12 [Example 7, 3-isobutyryl-4-(2-methylphenylamino)-8-(hydroxymethyl)quinoline]
inhibition in vivo at 10 µmol/kg [1]: 74%
IC50 [2]: 0.82 µM

Cc1cc(F)ccc1Nc1c(C(=O)C(C)C)cnc2c(CO)cccc12 [Example 8, 3-isobutyryl-4-(4-fluoro-2-methylphenylamino)-8-(hydroxymethyl)quinoline]
inhibition in vivo at 10 µmol/kg [1]: 76%
IC50 [2]: 2.1 µM

CCCC(=O)c1cnc2c(CO)cccc2c1Nc1ccccc1C [Example 1, 3-butyryl-4-(2-methylphenylamino)-8-(hydroxymethyl)quinoline]
inhibition in vivo at 10 µmol/kg [1]: 61%
IC50 [2]: 0.84 µM

CCCC(=O)c1cnc2c(OCCOCCO)cccc2c1Nc1ccc(F)cc1C [Example 13, 3-butyryl-4-(4-fluoro-2-methylphenylamino)-8-(2-(2-hydroxyethoxy)ethoxy)quinoline]
inhibition in vivo at 10 µmol/kg [1]: 49%
IC50 [2]: 4 µM

CCCC(=O)c1cnc2ccc(CO)cc2c1Nc1ccccc1C [Example 5, 3-butyryl-4-(2-methylphenylamino)-6-hydroxymethylquinoline]
inhibition in vivo at 10 µmol/kg [1]: 46%
IC50 [2]: 4.4 µM

CCCC(=O)c1cnc2c(CO)cccc2c1Nc1ccc(O)cc1C [Example 3, 3-butyryl-4-(4-hydroxy-2-methylphenylamino)-8-(hydroxymethyl)quinoline hydrochloride]
inhibition in vivo at 10 µmol/kg [1]: 88%
IC50 [2]: 0.18 µM

— US5089504A, “Substituted 4-aminoquinoline derivatives as gastric acid secretion inhibitors” (SmithKline Beckman Intercredit B.V., priority 1988, dated 1992)
